Measurements: patent US6126909A, “Process and apparatus for the production of BI-212 and a use thereof” (Arch Development Corporation, priority 1999, dated 2000)
“Also recorded” adds a separate entry of the source.

Columns and labels:
[1] = Toxicity studies, intraperitoneal graded doses; type: in vivo, rabbit
Experimental: (§1) In vivo studies were conducted to determine the distribution of Bi-212 produced using the above-noted process and to compare the Bi-212 distribution to the distribution of Pb-212 ferrous hydroxide in colloidal form. The in vivo studies were conducted using white, female New Zealand rabbits weighing about 4.5 kilograms ([…]) each. Studies were also conducted using rabbits to determine the toxicity levels, e.g., the maximum tolerated dose. Efficacy studies were conducted using 25 gram (gm) female Swiss-Webster mice inoculated with Ehrlich-Lettre Ascites carcinoma cells.
The peritoneal cavities of rabbits were instilled with graded doses of Bi-212. The rabbits were followed until death or for up to three months after their blood counts normalized. The rabbits were necropsied at death or termination of the study and their organs were microscopically examined to determine the effect of the Bi-212 on healthy organs.

NIH:OVCAR-3 cells = assay: In vitro irradiation survival (clonogenic), monolayer; type: cell-based, human; conditions: OVCAR-3 monolayer
Experimental: In vitro studies were carried out using three well known cell lines, the cells from which were exposed to radiation from: (1) an X-ray source; (2) P-32 chromic phosphate; and (3) Bi-212 chloride. The three cell lines that were used are V-79, which is a Chinese hamster lung fibroblast, Ehrlich-Lettre Ascites carcinoma (ATCC CCL 77), which is an ascites producing -tumor, and NIH:OVCAR-3 (ATCC HTB 161), which is a human ovarian adenocarcinoma. These well known cell lines are predictive of what happens in vivo. The cells were grown as monolayers and into spheroid formations and subsequently irradiated, as described herein.
The V-79 cells were maintained under exponential growth conditions in minimal essential medium (MEM) supplemented with 10 percent fetal bovine serum. The Ehrlich-Lettre Ascites carcinoma cells were maintained in 90 percent NCTC 109 supplemented with 10 percent fetal bovine serum. The NIH:OVCAR-3 cells were maintained in RPMI 1640 and 10 percent fetal bovine serum.
Cells from each of the cell lines were irradiated by subjecting the cells to X-ray radiation, P-32, and Bi-212. The X-ray source that was used is a General Electric 250 kvp Maxitron, 26 […] (mA) (HVL 1.5 mm Cu) operated at a dose rate of 1.11 Greys per minute (Gy/min). The cells, in both monolayer and spheroid form were exposed at room temperature and then immediately plated for survival.
Cells in both monolayer and spheroid were exposed to P-32 chromic phosphate. The radiation dose to each sample was calculated as: […]
After exposure, the cells were washed in phosphate-buffered saline (PBS) and immediately plated for survival.
The cell lines were also irradiated using Bi-212. Bismuth-212 was eluted from a generator as described in the aforementioned patent to Atcher et al., which was a cation-exchange column supporting Ra-224, with 1 ml of 0.15 N HI, and the generator was purged with 2 ml of distilled deionized water. […] The filter was purged with 1 ml of distilled deionized water, and the radioactivity was assayed using a calibrated 3×3-in. […]
Cells were exposed over a period of four hours. The dose (D) per microCurie was calculated and corrected for decay as follows: [formula] where V=volume in milliliters, and […]
Following plating, survival measurements were taken for each of the irradiated cell samples. […] The plates were then stained with crystal violet and colonies greater than 50 cells were scored. The surviving fraction was then determined.
Intrinsic radiosensitivity (Do) was calculated from the survival curves. […] Relative biological effectiveness (RBE) was determined as the ratio of the absorbed dose of X-ray to that of alpha radiation to produce the same degree of biological effect.

[2] = Retention of chelated and non-chelated Bi-212 in peritoneal fluid; type: in vivo, rabbit; conditions: rabbits, 3 hours after instillation
Experimental: (§2) Groups of rabbits were instilled with a varying amounts (correlating to varying activities) of Bi-212 that were prepared in accordance with the before-described process, neutralized to pH values of between 5.0 and 7.4, and had added thereto a quantity of normal saline to make a 200 cc sample. To compare the distribution of Bi-212, Pb-212 ferrous hydroxide was prepared in accordance with known methods. Rotmensch et al., Gynecol. Oncol., 35:297-300 (1989). Groups of rabbits were also instilled with the Pb-212 ferrous hydroxide preparation.
Of the groups of rabbits instilled with the Bi-212 solution, a rabbit was imaged and necropsied at each of one-half hour, one hour and three hours after instillation. The percent injected activity (%IA) in each organ was measured to determine the distribution of the Bi-212(Table 6). To determine whether chelating to DTPA improved the retention of Bi-212 in the peritoneal fluid, a group of rabbits was instilled with Bi-212 DTPA, and was imaged and necropsied at three hours following instillation. The percent activity remaining in the peritoneal fluid was measured.

[3] = Distribution in peritoneal cavity (imaging and necropsy); type: in vivo, rabbit; conditions: rabbits
Experimental: as §1
as §2, with “Groups of rabbits were also instilled with the Pb-212 ferrous hydroxide preparation.” left out
Of the groups of rabbits instilled with the Bi-212 solution, a rabbit was imaged and necropsied at each of one-half hour, one hour and three hours after instillation. The percent injected activity (%IA) in each organ was measured to determine the distribution of the Bi-212(Table 6). […] The percent activity remaining in the peritoneal fluid was measured.

[212Bi] [Bi-212, bismuth-212]
Microscopic examination of organs ([1]; 60 mCi, three months after instillation): only mild blunting of intestinal villi | Histology, small and large intestines ([1]; 80 mCi): marked individual cell necrosis of gland epithelium of the small and large intestines | Survival ([1]; 80 mCi): survived about three days | Histology ([1]; 100 mCi): diffuse epithelial necrosis | Survival ([1]; 100 mCi): survived about three days | Mortality ([1]; doses greater than 60 mCi): death within three days | Maximum dose tolerated ([1]; rabbits, intraperitoneal): 60 mCi | D0 (intrinsic radiosensitivity) (NIH:OVCAR-3 cells; dose increment reducing survival to 37 percent): 0.75 Gy | Relative biological effectiveness (RBE) (NIH:OVCAR-3 cells; relative to X-ray): 3.19 | % activity in blood volume [2]: 4.5% | % activity in peritoneal fluid [2]: 80% | % activity in urine [2]: 6.0% | Distribution in peritoneal cavity/fluid ([3]; intraperitoneal instillation): even distribution within the peritoneal fluid; also recorded: relatively even | Clumping / localized activity in peritoneal cavity ([3]; imaging up to 3 hours or necropsy): no clumping; i.e., no localized activity in the peritoneal cavity up to 3 hours after instillation
